Laboratory results from BindingDB's records for patent US11970463 (Astrazeneca, 2024).

Target: Potassium voltage-gated channel subfamily H member 2 (Homo sapiens, UniProt Q12809)
Assay: hERG Assay
Procedure: Experiments were performed on the SyncroPatch 384PE (Nanion Technologies) high throughput patch clamp platform at rt and used medium resistance chips with 4 patch holes per site. hERG-expressing Chinese hamster ovary K1 (CHO) cell line were used in assay-ready format and kept in liquid nitrogen until use. 2 vials of cells (10×10^6 cells per vial) were thawed and added to 20 mL Hepes-buffered saline solution (HBSS). HBSS comprised 140 mM NaCl, 4 mM KCl, 10 mM HEPES and 5 mM Glucose (pH 7.4). The internal patch clamp solution was KF 120 mM, KCl 20 mM, HEPES 10 mM, EGTA 10 mM, and 25 μM Escin (pH7.2). After the initial sealing process was complete, a seal enhancer solution comprising HBSS supplemented with 10 mM CaCl2 and 1 mM MgCl2 was applied to cells. The external solution was then exchanged (4 times) for external patch clamp solution comprising NaCl 80 mM, KCl 4 mM, HEPES 10 mM, CaCl2 2 mM, MgCl2 1 mM, glucose 5 mM, and NMDG 60 mM (pH 7.4). All solutions were stored at rt, except Escin, which was stored at 4° C. All compounds were dispensed in greiner-bio 384 well plates and tested in a 6 point cumulative assay (final DMSO concentration 0.33%). Only wells that passed acceptance criteria (30 MegaOhm seal resistance, Z prime >0.4 and current size >0.2 nA) were used in this analysis.

Sequence of Potassium voltage-gated channel subfamily H member 2 (Q12809 whole entry): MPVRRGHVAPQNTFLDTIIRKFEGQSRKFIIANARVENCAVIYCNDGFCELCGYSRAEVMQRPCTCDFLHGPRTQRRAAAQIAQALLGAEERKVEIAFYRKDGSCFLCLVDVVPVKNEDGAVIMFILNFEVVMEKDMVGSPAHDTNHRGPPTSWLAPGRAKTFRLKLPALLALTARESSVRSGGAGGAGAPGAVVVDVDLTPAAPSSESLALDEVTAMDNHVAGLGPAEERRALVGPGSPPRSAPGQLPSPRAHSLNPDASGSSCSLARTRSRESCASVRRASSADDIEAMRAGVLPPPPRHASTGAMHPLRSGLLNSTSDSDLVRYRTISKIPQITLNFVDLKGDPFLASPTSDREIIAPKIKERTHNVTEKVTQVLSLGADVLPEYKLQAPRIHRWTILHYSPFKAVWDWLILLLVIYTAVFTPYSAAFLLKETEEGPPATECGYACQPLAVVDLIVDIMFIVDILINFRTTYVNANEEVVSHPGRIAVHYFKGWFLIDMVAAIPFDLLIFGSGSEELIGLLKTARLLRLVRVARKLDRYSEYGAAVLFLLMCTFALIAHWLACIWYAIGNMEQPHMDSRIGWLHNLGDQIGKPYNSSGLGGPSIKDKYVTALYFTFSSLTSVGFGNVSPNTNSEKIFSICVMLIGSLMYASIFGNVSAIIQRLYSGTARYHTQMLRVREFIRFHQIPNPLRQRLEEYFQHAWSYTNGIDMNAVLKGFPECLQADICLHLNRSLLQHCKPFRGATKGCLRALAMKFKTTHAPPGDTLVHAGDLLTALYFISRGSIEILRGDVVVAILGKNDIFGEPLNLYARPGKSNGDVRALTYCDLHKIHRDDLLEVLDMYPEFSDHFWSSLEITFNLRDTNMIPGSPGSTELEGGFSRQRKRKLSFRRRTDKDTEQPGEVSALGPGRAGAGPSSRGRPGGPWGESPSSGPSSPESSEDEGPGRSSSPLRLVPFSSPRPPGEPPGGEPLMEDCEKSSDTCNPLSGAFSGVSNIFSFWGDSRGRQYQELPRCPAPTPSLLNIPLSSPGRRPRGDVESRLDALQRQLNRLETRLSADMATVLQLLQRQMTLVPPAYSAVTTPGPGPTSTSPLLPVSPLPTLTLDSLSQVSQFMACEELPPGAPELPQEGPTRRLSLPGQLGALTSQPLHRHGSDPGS

For C[C@@]1(O)CC[C@@H](Nc2nnc(-c3ccc(C(F)(F)F)cc3O)c3ccncc23)C1 [US11970463, Example 38], the IC50 was 34 µM.
